Values joined by “and” are separate entries in the source; they are usually repeats but may differ in a detail not shown here. Identical values can stand only once. Marks after values point to notes of the source that are not given here.
Key:
[1] = Chronic (3- and 9-month) monkey toxicity studies; assay type: in vivo; conditions: 1000 mg/kg/day, 3- and 9-month monkey studies
NASH mice = assay: STAM mouse model of Non-alcoholic Steatohepatitis, anti-NASH/fibrosis effects, week 9; assay type: in vivo
Experimental: NASH was induced in male mice by a single injection of […] streptozotocin 2 days after birth (causing impaired glucose control), followed by a high fat diet from 4 weeks of age. […] Animals were sacrificed at 9 weeks of age, and biochemical, gene expression, and histologic evaluations of the liver were conducted.
This in vivo efficacy study was performed to examine the effects of Cenicriviroc in the STAM™ mouse model of Non-alcoholic Steatohepatitis.

[2] = Study 202 ECG abnormalities; assay type: in vivo, human; conditions: through Week 48
[3] = CVC-high 100 mg/kg/day, week 9, listed as Cenicriviroc
[4] = CVC-low 20 mg/kg/day, week 9, listed as Cenicriviroc
[5] = All CVC (N = 115), EFV (N = 28)

In the case of CCCCOCCOc1ccc(-c2ccc3c(c2)/C=C(/C(=O)Nc2ccc([S@@+]([O-])Cc4cncn4CCC)cc2)CCCN3CC(C)C)cc1 [CVC, (S)-8-[4-(2-Butoxyethoxy)phenyl]-1-isobutyl-N-(4-{[(1-propyl-1H-imidazol-5-yl)methyl]sulfinyl}phenyl)-1,2,3,4-tetrahydro-1-benzazocine-5-carboxamide], the “inflammation in clinical pathology parameters or tissue incl. liver” value [1] is reported as “No indication of inflammation”, the “decrease of collagen type 1 mRNA in whole liver lysates” value (NASH mice; 20 and 100 mg/kg/day, week 9) is reported as 27-37% and the “Body weight” value (NASH mice; CVC-high 100 mg/kg/day, week 9) is reported as 18.7 ± 0.9 g. For the same molecule, the “Modified Sirius red-positive area (perivascular space subtracted)” value (“Modified Sirius red-positive area” for short) (NASH mice; CVC-high 100 mg/kg/day, week 9) was 0.20% and 0.20±0.06%, the “Plasma MCP-1” value (NASH mice; CVC-high 100 mg/kg/day, week 9) was 91 ± 14 pg/mL and the “Body weight” value (NASH mice; [3]) was 18.7 ± 0.9 g. For the same molecule, the “Modified Sirius red-positive area” value (NASH mice; [3]) was 0.20 ± 0.06%, the “Plasma MCP-1” value (NASH mice; [3]) was 91 ± 14 pg/mL and the “Hepatocyte ballooning score 0, number of mice” value (NASH mice; CVC-high, week 9, n = 6) was 1. For the same molecule, the “Hepatocyte ballooning score 1, number of mice” value (NASH mice; CVC-high, week 9, n = 6) was 2, the “Hepatocyte ballooning score 2, number of mice” value (NASH mice; CVC-high, week 9, n = 6) was 3 and the “Lobular inflammation score 1, number of mice” value (NASH mice; CVC-high, week 9, n = 6) was 3. The “Lobular inflammation score 2, number of mice” value (NASH mice; CVC-high, week 9, n = 6) was 3, the “Steatosis score 0, number of mice” value (NASH mice; CVC-high, week 9, n = 6) was 1 and the “Steatosis score 1, number of mice” value (NASH mice; CVC-high, week 9, n = 6) was 5. The “Body weight” value (NASH mice; CVC-low 20 mg/kg/day, week 9) was 19.5 ± 2.0 g, the “Liver hydroxyproline (μg/mg total protein)” value (“Liver hydroxyproline” for short) (NASH mice; CVC-low 20 mg/kg/day, week 9) was 0.63±0.05 μg/mg total protein and the “Modified Sirius red-positive area” value (NASH mice; CVC-low 20 mg/kg/day, week 9) was 0.29% and 0.29±0.14%. For the same molecule, the “Plasma ALT (U/L)” value (NASH mice; CVC-low 20 mg/kg/day, week 9) was 58±12 U/L, the “Plasma MCP-1” value (NASH mice; CVC-low 20 mg/kg/day, week 9) was 68 ± 16 pg/mL and the “Plasma MIP-1β” value (NASH mice; CVC-low 20 mg/kg/day, week 9) was 18 ± 2 pg/mL. The “Body weight” value (NASH mice; [4]) was 19.5 ± 2.0 g, the “Liver hydroxyproline” value (NASH mice; [4]) was 0.63 ± 0.05 μg/mg total protein and the “Modified Sirius red-positive area” value (NASH mice; [4]) was 0.29 ± 0.14%. For the same molecule, the “Plasma ALT (U/L)” value (NASH mice; [4]) was 58 ± 12 U/L, the “Plasma MCP-1” value (NASH mice; [4]) was 68 ± 16 pg/mL and the “Plasma MIP-1β” value (NASH mice; [4]) was 18 ± 2 pg/mL. For the same molecule, the “Hepatocyte ballooning score 1, number of mice” value (NASH mice; CVC-low, week 9, n = 6) was 3, the “Hepatocyte ballooning score 2, number of mice” value (NASH mice; CVC-low, week 9, n = 6) was 3 and the “Lobular inflammation score 1, number of mice” value (NASH mice; CVC-low, week 9, n = 6) was 3. For the same molecule, the “Lobular inflammation score 2, number of mice” value (NASH mice; CVC-low, week 9, n = 6) was 3, the “Steatosis score 1, number of mice” value (NASH mice; CVC-low, week 9, n = 6) was 6 and the “Modified positive area (%), per mouse” value (NASH mice; Cenicriviroc-high, individual mice 301-306) was 0.20%. The “Modified positive area (%), per photo” value (NASH mice; Cenicriviroc-high, individual mice 301-306, photos 1-5) was 0.41% and 0.09% (2×) and 0.23% (2×) and 0.17% (2×) and 0.28% (2×) and 0.22% (2×) and 0.08% (3×) and 0.05% and 0.32% and 0.07% (3×) and 0.16% and 0.20% (2×) and 0.68% and 0.27% and 0.12% and 0.11% and 0.67% and 0.26% and 0.06% and 0.10%, the “Liver hydroxyproline” value (NASH mice; week 9) was 0.62±0.09 μg/mg total protein and the “Plasma ALT (U/L)” value (NASH mice; week 9) was 51±13 U/L and 52±13 U/L. For the same molecule, the “Plasma MIP-1β” value (NASH mice; week 9) was 20 ± 4 pg/mL, the “Liver hydroxyproline” value (NASH mice; week 9, listed as Cenicriviroc) was 0.62 ± 0.09 μg/mg total protein and the “Plasma ALT (U/L)” value (NASH mice; week 9, listed as Cenicriviroc) was 52 ± 13 U/L. For the same molecule, the “Plasma MIP-1β” value (NASH mice; week 9, listed as Cenicriviroc) was 20 ± 4 pg/mL, the “HR Abnormally high (120 bpm ≤ abnormally high)” value [2, 5] was 0 n (%) and the “HR Abnormally low (≤ 50 bpm)” value [2, 5] was 0 n (%). For the same molecule, the “PR Abnormally high (210 ms ≤ abnormally high)” value [2, 5] was 3 (3%) n (%), the “QRS Abnormally high (120 ms ≤ abnormally high)” value [2, 5] was 1 (1%)^d n (%) and the “QRS Abnormally low (≤ 50 ms)” value [2, 5] was 0 n (%). For the same molecule, the “QTcB interval Borderline (450 ms ≤ borderline ≤ 480 ms)” value [2, 5] was 6 (6%) n (%), the “QTcB interval Increase by >30-60 ms” value [2, 5] was 9 (9%) n (%) and the “QTcB interval Increase by >60 ms” value [2, 5] was 1 (1%) n (%). The “QTcB interval Pathologically prolonged (> 500 ms)” value [2, 5] was 0 n (%), the “QTcB interval Prolonged (480 ms < prolonged ≤ 500 ms)” value [2, 5] was 0 n (%) and the “QTcF interval Borderline (450 ms ≤ borderline ≤ 480 ms)” value [2, 5] was 2 (2%) n (%). The “QTcF interval Increase by >30-60 ms” value [2, 5] was 7 (7%) n (%), the “QTcF interval Increase by >60 ms” value [2, 5] was 1 (1%) n (%) and the “QTcF interval Pathologically prolonged (> 500 ms)” value [2, 5] was 0 n (%). For the same molecule, the “QTcF interval Prolonged (480 ms < prolonged ≤ 500 ms)” value [2, 5] was 0 n (%), the “HR Abnormally high (120 bpm ≤ abnormally high)” value ([2]; CVC 100 mg (N = 58)) was 0 n (%) and the “HR Abnormally low (≤ 50 bpm)” value ([2]; CVC 100 mg (N = 58)) was 0 n (%).
